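In this assay, cells in 96-well plates receive the compound at five concentrations for 48 hours. Endpoints are linearly interpolated between the surrounding concentrations. TGI denotes the concentration required for complete inhibition of growth.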 A value given as a limit tells only on which side of the number the result lay.

Drawing on PubChem BioAssay (NCI), this text covers TGI for 15 compounds.

Holding throughout (assay): NCI tumour cell line growth inhibition, 48 h
Assay [1] deals with TK-10 renal.
Assay [2] concerns SK-MEL-28 melanoma.
The test system of assay [3] is SNB-19 CNS.
For assay [4], the system named is SF-539 CNS.
Assay [5] deals with HOP-62 NSCLC.
The subject of assay [6] is OVCAR-4 ovarian.
The test system of assay [7] is UO-31 renal.
Assay [8] has as its system A549 NSCLC.
For assay [9], the system named is OVCAR-8 ovarian.
For assay [10], the system named is NCI-H460 lung.

Consider `CCCCCCCCCCCCCCCCNc1ccn(C2CC(OP(=O)(O)OCC3OC(n4cc(CC)c(=O)[nH]c4=O)CC3O)C(CO)O2)c(=O)n1` (stereo not given), for which the TGI in assay [1] is more than 100 µM; in assay [2] it was 68.3 µM; in assay [3], 31.7 µM; in assay [4] it was 34.4 µM; in assay [5], 53.9 µM; in assay [6], more than 100 µM. The TGI in assay [7] was 53 µM; in assay [8] it was 55.2 µM; in assay [9], 43.6 µM.
As to `CCCCCCc1cn([C@H]2C[C@H](O)[C@@H](CO)O2)c(=O)[nH]c1=O`, the TGI in assay [2], in assay [3], in assay [4], in assay [10], in [6] and in assay [7] was more than 100 µM in each case. Moreover, the TGI in assay [8] and in assay [9] was more than 100 µM throughout.
Turning to `CC(C)CC(NC(=O)C(COc1ccc([N+](=O)[O-])cc1)Cc1ccccc1)C(=O)Nc1ccccc1` (stereo not given), the TGI is 50.3 µM in assay [1]; 20.2 µM in assay [3]; 18.9 µM in [4]; 13.2 µM in assay [10]; 8.33 µM in assay [6]; 24.5 µM in assay [7]. Further, the values for the TGI in assay [8] and in assay [9] were 69.2 µM and 27.4 µM, respectively.
For the compound `Cc1nn(-c2ccccn2)c2c1C(SC#N)=C(C=O)CC2`, the TGI in [1] was found to be 6.03 µM; in assay [2] it was 45.9 µM; in assay [3] it was 47.8 µM; in [4], 36.1 µM; in assay [5] it was 22.3 µM; in [10], 34.9 µM. In addition, the TGI came out at 29.1 µM in assay [7], 46 µM in assay [8] and 30.8 µM in assay [9].
In the case of `COc1ccc(NS(=O)c2cccc(C)c2)cc1` (stereo not given), the TGI in assay [1] is more than 100 µM; in [2], more than 100 µM; in assay [3], more than 100 µM; in assay [4], 66.7 µM; in assay [5], more than 100 µM; in [10], more than 100 µM. Besides, the TGI in assay [7], in [8] and in assay [9] was more than 100 µM each time.
As to `c1ccc(CNc2ncnc3n[nH]nc23)cc1`, the TGI in [1], in assay [2], in [3], in [4], in assay [5] and in assay [6] was more than 100 µM in each case. In addition, the TGI in assay [7], in assay [8] and in assay [9] was more than 100 µM in each case.
`N#Cc1c(C#N)c(-c2ccccc2)n(/N=C\c2ccccc2)c1N`: the TGI in assay [1] is more than 100 µM; in assay [3], more than 100 µM; in [4], 55.1 µM; in [5], more than 100 µM; in assay [6], 59.9 µM; in assay [7], 81.8 µM. The values for the TGI in assay [8] and in assay [9] were 71.4 µM and more than 100 µM, respectively.
For `O=S(=O)(/N=C1/SC(=Nc2ccccc2)N(c2ccccc2)/C1=N/S(=O)(=O)c1ccccc1)c1ccccc1`, the TGI in [1] is 91.8 µM; in assay [2], 34 µM; in [3] it was 96.8 µM; in [5], 80.4 µM; in [10] it was 51.6 µM; in [7] it was 39.9 µM. For the same compound, the TGI in assay [8] came to 69 µM; in assay [9] it was 62.6 µM.
`COc1cccc(C2CC(=O)c3cccn32)c1` (stereo not given): the TGI in assay [1], in [2], in assay [3], in [4], in assay [5] and in assay [6] was more than 100 µM each time. Also, the TGI in assay [7], in [8] and in assay [9] was more than 100 µM in each case.
With `COc1ccccc1N1C(=O)/C(=C\c2cccc(Oc3ccccc3)c2)S(=O)(=O)C1c1ccccc1` (stereo not given), the TGI in assay [1], in [2], in assay [3], in assay [5], in [10] and in assay [6] was more than 100 µM in each case. Besides, the TGI in assay [7] and in assay [8] was more than 100 µM throughout.
In the case of `C=C1CC(OC)(C(O)C(=O)N[C@H]2OCO[C@H]3C2O[C@H](C[C@H](O)COC)C(C)(C)C3OC)O[C@H](C)[C@@H]1C` (stereo not given in full), the TGI in [2], in [3], in assay [4], in assay [5], in [10] and in assay [6] was more than 0.00772 µM throughout. The TGI in [7], in assay [8] and in assay [9] was more than 0.00772 µM in each case.
Regarding `Cc1nnc(CC#N)n1NC(=O)CC#N`, the TGI in [1], in assay [2], in assay [3], in assay [4], in assay [5] and in [10] was more than 100 µM each time. Moreover, the TGI in assay [7], in assay [8] and in assay [9] was more than 100 µM throughout.
For the compound `CN(C)C=Nc1nncc2n[nH]nc12`, the TGI in [1], in assay [2], in [3], in [4], in assay [5] and in [10] was more than 100 µM throughout. Further, the TGI in assay [7], in assay [8] and in assay [9] was more than 100 µM each time.
Consider `COC(=O)c1c(C#C[Si](C)(C)C)c(C#C[Si](C)(C)C)c(C#C[Si](C)(C)C)c(C#C[Si](C)(C)C)c1C(=O)OC`, for which the TGI in assay [1], in assay [2], in [3], in assay [4], in [10] and in assay [6] was more than 100 µM in each case. The TGI in assay [7], in assay [8] and in assay [9] was more than 100 µM each time.
Turning to `CCOC(=O)N1C(=S)C(C(=O)OC)(C(=O)OC)N=C1C`, the TGI in [1], in assay [2], in assay [3], in assay [5], in assay [10] and in assay [6] was more than 100 µM in each case. Besides, the TGI in assay [7], in [8] and in [9] was more than 100 µM each time.
